Assay results published in patent US5498624A, “Selected pyrazolyl derivatives” (Monsanto Company, priority 1995, dated 1996).

Experiments:
Format in all cases: in vivo
[1] = system: Wheat Leaf Rust; assay: Wheat Leaf Rust Foliar Assay (WLR Prot); conditions: 20 ppm foliar protectant
Description: A) Pathogen/Inoculum Production--Urediospores of previously infected plants are collected using a small vacuum device and stored in glass vials at -2° C. Just before inoculation the requisite number of vials are warmed and the spores suspended in Soltrol, a light machine oil.
(B) Host Propagation, (C) Compound Preparation and (D) Compound Application follow as per Example 1.
E) Inoculation/Incubation--To inoculate the plants, the urediospore/Soltrol suspension, adjusted to 5×10^4 spores/ml, is applied in a light coating to the foliage, and the plants are placed in a mist tent for 12 to 18 hours at 20° C. in the dark. The test can then be returned to the previous growing conditions until foliar symptoms are evident and the plants can be assessed.
F) Test Evaluation--About 7 days after the plants are removed from the mist tent, the rust lesions should be evident. Three leaves in each pot (replicate) are assessed for percent infection. Phytotoxicity and growth effects are also noted at this time.
G) Data--Follows as per Example 1.

[2] = system: Uncinula necator; assay: Vine Powdery Mildew Foliar Assay (VPM Prot); conditions: vine seedlings
Description: A) Pathogen/Inoculum--Vine powdery mildew, caused by Uncinula necator, is an obligate parasite and must be maintained on a living host. Seedling leaves (2-5 leaf stage) of Vitis vinifera var. Carignane, are inoculated by brushing them with the leaves of infected plants. Incubation environment is the same as that described for incubation (Sec. D).
B) Host Propagation- Approximately 60 gm of seed are removed from cold storage and soaked in water for 2-3 days with frequent (3 or more) water changes each day. They are then combined with 24 gm of vermiculite and 30 ml of distilled water and put into refrigeration for 4-5 weeks. After this `vernalization` period, they are planted, 3 seeds/pot, into individual 2.25" pots filled with a commercial potting mix. The pots are watered well, and placed into a growth chamber set at 24° C., 85% RH and a 12 hour photoperiod at 200-300 me/m^2 /sec. The seedlings are thinned to one seedling/pot approximately 14 days after planting. After four to five additional days, seedlings are moved to the greenhouse. Plants are ready for assay 4-6 weeks after planting.
C) Test Compound Preparation
1) Experimental compounds--A final formulation of each of the compounds of the present invention in 20% acetone, 0.1% Tween®20 and 79.9% water is foliarly applied to the seedling vines at about 1.5 mls/pot (4 pots/treatment) using a DeVilbiss 152 sprayer at the rate of 100, 20 and 10 ppm. The seedlings have 2-4 true leaves at application. Treated pots are allowed to dry in a vented room and are then moved to the inoculation growth chamber (see Sec. D for settings).
2) Controls and standards--The commercial product RALLY=NOVA (myclobutanil)is used as an internal standard. Formulated myclobutanil 40 WP is applied at 100 and 20 ppm in water. Also included in the test is an inoculated control treatment (a water/acetone formulation blank).
D) Inoculation/Incubation--Treated vines are inoculated 24 hours after chemical application. Several diseased leaves are removed from inoculum production plants and are very gently brushed on the leaves of the test plants. This gentle contact and agitation allows spores to be dislodged from diseased leaves and fall onto test plant leaves.
The inoculation/incubation growth chamber is set at 24° C., 85% RH, and 12 hour photoperiod at 350 me/m^2 /sec.
E) Evaluation--The test is rated 7-9 days after inoculation or upon maximum disease expression. Percent area infected with disease is determined for each replicate. Treatment means are calculated and percent disease control is determined by the formula "(control mean--treatment mean) * 100 / control mean". The untreated/inoculated control treatment is used for this calculation. […]

[3] = system: Venturia inaequalis; assay: Apple Scab Foliar Assay (ASC Prot); conditions: apple seedlings
Description: A) Host Propagation--Apple, var. McIntosh, are collected form trees in the field and stored in a cold room at 4° C. After a minimum of 60 days storage, seed are collected and germinated in vermiculite in 3 inch pots in a growth chamber set at 27° C. day and 23° C. night temperature. When seedlings have emerged and 2-3 true leaves formed, the seedling are transplanted into 4 inch square pots containing a soil medium consisting of commercial potting mix. Seedlings are grown in this medium to the 8-10 leaf stage for use in tests. Before each test, the petiole of the smallest unfolded leaf is marked, with this leaf and the immediate five older leaves sprayed and inoculated in the test. The petiole of the oldest sprayed and inoculated leaf is also marked. The marking facilitates data collection for specific leaves and identification of the application site.
B) Test Compound Preparation--Compounds of the present invention are applied to the upper and lower leaf surfaces of the identified leaves at the rate of 100 and 20 ppm using a DiVilbiss Model 152 hand sprayer. Four plants per treatment are sprayed with 12 mls of spray solution which contains 40% acetone, 59.9% water, and 0.1% Triton B1956. Nova® (myclobutanil) is used as the commercial standard. It is suspended in water and applied at equivalent rates.
C) Pathogen/Inoculum Production--Inoculum from the apple scab pathogen, Venturia inaequalis, is obtained directly by washing conidia off of scab lesions from leaves on apple seedlings or by use of previously collected conidial suspension that has been frozen in a glass vial at -80° C. Conidial suspension concentration is adjusted to approximately 1×10^5 spores/ml by dilution with a solution of 1% v/v V8 juice/water. […]
D) Test Evaluation--Phytotoxicity data, and leaf burning, etc. is collected by treatment at the time of pathogen inoculation and at disease evaluation. Disease is evaluated on day 8-12 by estimating the amount of treated leaf tissue that is covered by apple scab lesions or symptoms. […] The percentage control is calculated as in the above examples.

| Compound | WLR Prot percent disease control [1] [%] | VPM Prot percent disease control ([2]; 20 ppm foliar protectant) [%] | VPM Prot percent disease control ([2]; 100 ppm foliar protectant) [%] | ASC Prot percentage control ([3]; 20 ppm foliar protectant) [%] | ASC Prot percentage control ([3]; 100 ppm foliar protectant) [%] | VPM Prot percent disease control ([2]; 10 ppm foliar protectant) [%] |
| --- | --- | --- | --- | --- | --- | --- |
| C[C@@H]1CCC[C@H](c2ccccc2NC(=O)c2cn(C)nc2C(F)F)C1 (relative stereo) [Number 2, 1H-pyrazole-4-carboxamide, 3-(difluoromethyl)-1-methyl-N-[2-(-3-methylcyclohexyl)phenyl]-, cis-] | 96 | 76 | 91 | 58 | 99 |  |
| C[C@H]1CCC[C@H](c2ccccc2NC(=O)c2cn(C)nc2C(F)F)C1 (relative stereo) [Number 3, 1H-pyrazole-4-carboxamide, 3-(difluoromethyl)-1-methyl-N-[2-(3-methylcyclohexyl)phenyl]-, trans-] | 100 | 51 |  | 90 |  | 34 |
